These results are taken from US9540391B2, “Isomannide derivatives as inhibitors of soluble epoxide hydrolase” (SANOFI, priority 2013, dated 2017).

The test deals with T1, recombinant sEH (Homo sapiens, UniProt P34913).
T1 construct: made in house; host or cells: Sf9 insect cells
T1 sequence (P34913 1-555): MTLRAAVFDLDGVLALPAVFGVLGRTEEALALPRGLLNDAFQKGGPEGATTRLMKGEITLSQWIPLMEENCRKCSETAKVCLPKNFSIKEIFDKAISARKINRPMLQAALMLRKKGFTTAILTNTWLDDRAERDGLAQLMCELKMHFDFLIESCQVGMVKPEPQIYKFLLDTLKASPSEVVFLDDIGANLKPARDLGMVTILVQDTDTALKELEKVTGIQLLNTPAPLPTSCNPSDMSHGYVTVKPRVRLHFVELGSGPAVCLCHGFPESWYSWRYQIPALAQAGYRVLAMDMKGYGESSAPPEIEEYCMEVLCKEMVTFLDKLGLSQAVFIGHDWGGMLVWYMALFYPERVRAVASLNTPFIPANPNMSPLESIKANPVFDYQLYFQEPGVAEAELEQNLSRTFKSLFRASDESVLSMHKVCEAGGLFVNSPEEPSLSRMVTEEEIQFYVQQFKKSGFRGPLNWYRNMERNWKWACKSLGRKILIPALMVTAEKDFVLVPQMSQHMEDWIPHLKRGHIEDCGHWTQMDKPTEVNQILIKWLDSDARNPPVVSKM
As to the kind of experiment: biochemical screening assay for inhibition of soluble epoxide hydrolase (fluorometric, Phome substrate). On the procedure: The ability of the compounds of the formula I to inhibit soluble epoxide hydrolase can be determined as follows:
Compounds were tested in a biochemical screening assay using recombinant sEH purified from Sf9 insect cells and an artificial substrate, (3-phenyl-oxiranyl)-acetic acid cyano-(6-methoxy-naphtalen-2-yl)-methyl ester, Phome. The biochemical assay was performed in analogy to a fluorometric method described in the literature (P. D. Jones et al., Anal. Biochem. 2005, 343, 66-75). The assay principle bases on the sEH-catalyzed hydrolysis of an artificial α-cyano-ester substrate. 0-deacetylation liberates a cyanohydrin intermediate that rapidly decomposes to the highly fluorescent 6-methoxy-2-naphtaldehyde. To discriminate sample autofluorescence, the assay was carried out as a kinetic measurement with two time points. The first measurement is performed immediately before addition of the substrate and the second measurement is done after completion of the assay. The assay format is either in 96- or in 384-well format. Details of the assay using a 96-well plate format are described below. 40 μL recombinant sEH enzyme and 5 μL test compound are pre-incubated for 15 minutes at 30° C. Following pre-incubation, the reaction is started by addition of 5 μL Phome. The assay mixture containing 2 nM final sEH concentration, test compound ranging in a concentration from 0.0001-10 μM and 5 μM Phome is incubated for 60 minutes at 30° C.
Fluorescence can be measured with any suitable detector for instance a TECAN Safire or Tecan Ultra at […]. % inhibition of recombinant sEH activity is used for calculation of corresponding IC50 values as illustrated and described in the examples.
The NCBI gene bank reference sequence with the accession number NM_001979 for EPHX2/sEH was applied for recombinant protein production:
The following commercially available materials have been used: • Incubation reagent: 25 mM Hepes (Sigma-Aldrich, Cat. No H-3375), 0.01% bovine albumin (Sigma-Aldrich Cat. No PA9205) • Substrate: 3-Phenyl-oxiranyl)-acetic acid cyano-(6-methoxy-naphtalen-2-yl)-methyl ester, Phome (Biozol Cat. No 10003134) • Microtiter plates: 96-well plates (Greiner Cat. No 655180; Costar Cat. No 3915)

Molecules are shown by their SMILES. Where a name gives a salt, the structure may show the parent alone.

`Cc1ccc(O[C@H]2CO[C@H]3[C@@H]2OC[C@@H]3NC(=O)NC2CCCCC2)cn1` [Example 28, 1-Cyclohexyl-3-[(3S,3aR,6S,6aS)-6-(6-methyl-pyridin-3-yloxy)-hexahydro-furo[3,2-b]furan-3-yl]-urea]: the IC50 came to 8 nM.

In the case of `O=C(NC1CCCCC1)N[C@H]1CO[C@H]2[C@@H]1OC[C@@H]2Oc1ccc(F)c(Cl)c1` [Example 29, 1-[(3S,3aR,6S,6aS)-6-(3-Chloro-4-fluoro-phenoxy)-hexahydro-furo[3,2-b]furan-3-yl]-3-cyclohexyl-urea], the IC50 is 2 nM.

Regarding `O=C(NC1CCCCC1)N[C@H]1CO[C@H]2[C@@H]1OC[C@@H]2Oc1cccc(-n2cnnc2)c1` [Example 30, 1-Cyclohexyl-3-[(3S,3aR,6S,6aS)-6-(3-[1,2,4]triazol-4-yl-phenoxy)-hexahydro-furo[3,2-b]furan-3-yl]-urea], the IC50 came out at 2 nM.

With `O=C(NC1CCCCC1)N[C@H]1CO[C@H]2[C@@H]1OC[C@@H]2Oc1cc(Cl)cc(Cl)c1` [Example 31, 1-Cyclohexyl-3-[(3S,3aR,6S,6aS)-6-(3,5-dichloro-phenoxy)-hexahydro-furo[3,2-b]furan-3-yl]-urea], the IC50 turned out to be 3 nM.

As for `Cn1ccnc1-c1ccc(O[C@H]2CO[C@H]3[C@@H]2OC[C@@H]3NC(=O)NC2CCCCC2)cc1` [Example 32, 1-Cyclohexyl-3-{(3S,3aR,6S,6aS)-6-[4-(1-methyl-1H-imidazol-2-yl)-phenoxy]-hexahydro-furo[3,2-b]furan-3-yl}-urea], the IC50 was 3 nM.

On to `O=C(NC1CCCCC1)N[C@H]1CO[C@H]2[C@@H]1OC[C@@H]2Oc1cncc(Cl)c1` [Example 33, 1-[(3S,3aR,6S,6aS)-6-(5-Chloro-pyridin-3-yloxy)-hexahydro-furo[3,2-b]furan-3-yl]-3-cyclohexyl-urea], for which the IC50 was 3 nM.

On to `Cc1ccc(O[C@H]2CO[C@H]3[C@@H]2OC[C@@H]3NC(=O)NC2CCCCC2)c(C)n1` [Example 34, 1-Cyclohexyl-3-[(3S,3aR,6S,6aS)-6-(2,6-dimethyl-pyridin-3-yloxy)-hexahydro-furo[3,2-b]furan-3-yl]-urea], for which the IC50 is 2 nM.

With `O=C(NC1CCCCC1)N[C@H]1CO[C@H]2[C@@H]1OC[C@@H]2Oc1cncc(F)c1` [Example 35, 1-Cyclohexyl-3-[(3S,3aR,6S,6aS)-6-(5-fluoro-pyridin-3-yloxy)-hexahydro-furo[3,2-b]furan-3-yl]-urea], the IC50 amounted to 12 nM.

For `Cc1cncc(O[C@H]2CO[C@H]3[C@@H]2OC[C@@H]3NC(=O)NC2CCCCC2)c1` [Example 36, 1-Cyclohexyl-3-[(3S,3aR,6S,6aS)-6-(5-methyl-pyridin-3-yloxy)-hexa-hydro-furo[3,2-b]furan-3-yl]-urea], the IC50 stood at 1 nM.

As to `Cc1ccnc(C)c1O[C@H]1CO[C@H]2[C@@H]1OC[C@@H]2NC(=O)NC1CCCCC1` [Example 37, 1-Cyclohexyl-3-[(3S,3aR,6S,6aS)-6-(2,4-dimethyl-pyridin-3-yloxy)-hexa-hydro-furo[3,2-b]furan-3-yl]-urea], the IC50 was determined as 1 nM.

With `CCc1nc(C)ccc1O[C@H]1CO[C@H]2[C@@H]1OC[C@@H]2NC(=O)NC1CCCCC1` [Example 38, 1-Cyclohexyl-3-[(3S,3aR,6S,6aS)-6-(2-ethyl-6-methyl-pyridin-3-yloxy)-hexahydro-furo[3,2-b]furan-3-yl]-urea], the IC50 was 1 nM.

As to `Cc1cc(C)c(O[C@H]2CO[C@H]3[C@@H]2OC[C@@H]3NC(=O)NC2CCCCC2)cn1` [Example 39, 1-Cyclohexyl-3-[(3S,3aR,6S,6aS)-6-(4,6-dimethyl-pyridin-3-yloxy)-hexa-hydro-furo[3,2-b]furan-3-yl]-urea], the IC50 was 2 nM.

For `N#Cc1ncccc1O[C@H]1CO[C@H]2[C@@H]1OC[C@@H]2NC(=O)NC1CCCCC1` [Example 40, 1-[(3S,3aR,6S,6aS)-6-(2-Cyano-pyridin-3-yloxy)-hexahydro-furo[3,2-b]furan-3-yl]-3-cyclohexyl-urea], the IC50 is 11 nM.

On to `Cc1ncc(O[C@H]2CO[C@H]3[C@@H]2OC[C@@H]3NC(=O)NC2CCCCC2)cn1` [Example 41, 1-Cyclohexyl-3-[(3S,3aR,6S,6aS)-6-(2-methyl-pyrimidin-5-yloxy)-hexa-hydro-furo[3,2-b]furan-3-yl]-urea], for which the IC50 was found to be 25 nM.

With `O=C(NC1CCCCC1)N[C@H]1CO[C@H]2[C@@H]1OC[C@@H]2Oc1ccc(C(F)(F)F)nc1` [Example 42, 1-Cyclohexyl-3-[(3S,3aR,6S,6aS)-6-(6-trifluoromethyl-pyridin-3-yloxy)-hexahydro-furo[3,2-b]furan-3-yl]-urea], the IC50 came out at 47 nM.

As to `Cc1nnc(S[C@H]2CO[C@H]3[C@@H]2OC[C@@H]3NC(=O)NC2CCCCC2)o1` [Example 43, 1-Cyclohexyl-3-[(3S,3aR,6S,6aS)-6-(5-methyl-[1,3,4]oxadiazol-2-ylsulfanyl)-hexahydro-furo[3,2-b]furan-3-yl]-urea], the IC50 amounted to 86 nM.

As to `O=C(NC1CCCCC1)N[C@H]1CO[C@H]2[C@@H]1OC[C@@H]2Oc1cncnc1` [Example 44, 1-Cyclohexyl-3-[(3S,3aR,6S,6aS)-6-(pyrimidin-5-yloxy)-hexahydro-furo[3,2-b]furan-3-yl]-urea], the IC50 stood at 42 nM.

`O=C(NC1CCCCC1)N[C@H]1CO[C@H]2[C@@H]1OC[C@@H]2SCC(F)(F)F` [Example 45, 1-Cyclohexyl-3-[(3S,3aR,6S,6aS)-6-(2,2,2-trifluoro-ethylsulfanyl)-hexa-hydro-furo[3,2-b]furan-3-yl]-urea]: the IC50 is 25 nM.

`O=C(NC1CCCCC1)N[C@H]1CO[C@H]2[C@@H]1OC[C@@H]2Sc1ncccn1` [Example 46, 1-Cyclohexyl-3-[(3S,3aR,6S,6aS)-6-(pyrimidin-2-ylsulfanyl)-hexahydro-furo[3,2-b]furan-3-yl]-urea]: the IC50 stood at 50 nM.

Regarding `Cc1cc(C)nc(S[C@H]2CO[C@H]3[C@@H]2OC[C@@H]3NC(=O)NC2CCCCC2)n1` [Example 47, 1-Cyclohexyl-3-[(3S,3aR,6S,6aS)-6-(4,6-dimethyl-pyrimidin-2-ylsulfanyl)-hexahydro-furo[3,2-b]furan-3-yl]-urea], the half-maximal inhibitory concentration (IC50) was determined as 51 nM.

`O=C(NC1CCCCC1)N[C@H]1CO[C@H]2[C@@H]1OC[C@@H]2Sc1ncc[nH]1` [Example 48, 1-Cyclohexyl-3-[(3S,3aR,6S,6aS)-6-(1H-imidazol-2-ylsulfanyl)-hexa-hydro-furo[3,2-b]furan-3-yl]-urea]: the IC50 is 11 nM.

As to `O=C(NC1CCCCC1)N[C@H]1CO[C@H]2[C@@H]1OC[C@@H]2Sc1ccncn1` [Example 49, 1-Cyclohexyl-3-[(3S,3aR,6S,6aS)-6-(pyrimidin-4-ylsulfanyl)-hexahydro-furo[3,2-b]furan-3-yl]-urea; hydrochloride], the IC50 turned out to be 3 nM.

For `Cc1cnc(S[C@H]2CO[C@H]3[C@@H]2OC[C@@H]3NC(=O)NC2CCCCC2)nc1` [Example 50, 1-Cyclohexyl-3-[(3S,3aR,6S,6aS)-6-(5-methyl-pyrimidin-2-ylsulfanyl)-hexahydro-furo[3,2-b]furan-3-yl]-urea; hydrochloride], the IC50 stood at 10 nM.

In the case of `O=C(NC1CCCCC1)N[C@H]1CO[C@H]2[C@@H]1OC[C@@H]2Oc1ccc(Cl)nc1` [Example 51, 1-[(3S,3aR,6S,6aS)-6-(6-Chloro-pyridin-3-yloxy)-hexahydro-furo[3,2-b]furan-3-yl]-3-cyclohexyl-urea], the IC50 was 8 nM.

`O=C(NC1CCCCC1)N[C@H]1CO[C@H]2[C@@H]1OC[C@@H]2Sc1ncc(Cl)cn1` [Example 52, 1-[(3S,3aR,6S,6aS)-6-(5-Chloro-pyrimidin-2-ylsulfanyl)-hexahydro-furo[3,2-b]furan-3-yl]-3-cyclohexyl-urea]: the IC50 turned out to be 1 nM.

In the case of `Cc1cc(C)c(S[C@H]2CO[C@H]3[C@@H]2OC[C@@H]3NC(=O)NC2CCCCC2)cn1` [Example 53, 1-Cyclohexyl-3-[(3S,3aR,6S,6aS)-6-(4,6-dimethyl-pyridin-3-ylsulfanyl)-hexahydro-furo[3,2-b]furan-3-yl]-urea], the IC50 was under 1 nM.

A word on the IC50: it is the concentration that gives 50% inhibition.
